Results reported in US11945796B2, “Substituted pyridine derivatives as SARM1 inhibitors” (Nura Bio, Inc., priority 2020, dated 2024).
Like-named read-outs stand apart in the source and are kept apart here. Values belong to the compound of their own block, whether it stands above or below them.

Target: T1, human SARM1(50-724) (Homo sapiens, UniProt Q6SZW1)
T1 construct: 40 nM human SARM1(50-724)
T1 sequence (Q6SZW1 50-724): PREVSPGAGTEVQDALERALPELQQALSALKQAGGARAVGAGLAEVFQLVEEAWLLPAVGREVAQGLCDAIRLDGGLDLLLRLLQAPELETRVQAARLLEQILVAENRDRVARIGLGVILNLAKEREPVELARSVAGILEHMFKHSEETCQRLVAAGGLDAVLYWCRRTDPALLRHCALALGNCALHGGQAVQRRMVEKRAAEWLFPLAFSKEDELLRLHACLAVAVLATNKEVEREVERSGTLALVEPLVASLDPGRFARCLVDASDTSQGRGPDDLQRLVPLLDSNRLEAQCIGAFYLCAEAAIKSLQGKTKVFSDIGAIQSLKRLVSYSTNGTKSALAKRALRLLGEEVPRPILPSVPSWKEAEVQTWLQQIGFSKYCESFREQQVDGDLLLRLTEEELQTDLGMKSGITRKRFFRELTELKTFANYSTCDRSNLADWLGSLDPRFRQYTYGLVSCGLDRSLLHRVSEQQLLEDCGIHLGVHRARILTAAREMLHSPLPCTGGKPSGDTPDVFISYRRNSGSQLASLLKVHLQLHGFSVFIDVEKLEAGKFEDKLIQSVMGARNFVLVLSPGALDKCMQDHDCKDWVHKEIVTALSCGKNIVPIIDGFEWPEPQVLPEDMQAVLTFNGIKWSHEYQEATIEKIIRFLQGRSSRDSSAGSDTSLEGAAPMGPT
Test: SARM1 NADase biochemical assay (HPLC peak areas of NAD and NAM)
Conditions: for IC50: dose-response, 1:3 serial dilution from 100 μM, 40 nM SARM1, 0.3 mM NMN, 20 μM NAD, 60 min rt

[1] = 50 μM compound, NAD peak area, read-out: Avg NAD % inhibition at 50 μM
[2] = 50 μM compound, NAM peak area, read-out: Avg NAM % inhibition at 50 μM

- inhibition at 50 µM [1]: 0 to 50%
- inhibition at 50 µM [2]: 0 to 50%
Compound: c1cc(Cn2ccc(NCC3CCC3)n2)ccn1 [Example 95, N-(Cyclobutylmethyl)-1-(pyridin-4-ylmethyl)-1H-pyrazol-3-amine]

Compound: FCCNc1ccn(Cc2ccncc2)n1 [Example 96, N-(2-Fluoroethyl)-1-(pyridin-4-ylmethyl)-1H-pyrazol-3-amine]
- inhibition at 50 µM (read-out: Avg NAD % inhibition at 50 μM): 51 to 100%
- inhibition at 50 µM (read-out: Avg NAM % inhibition at 50 μM): 51 to 100%

- inhibition at 50 µM [1]: 0 to 50%
- inhibition at 50 µM [2]: 0 to 50%
Compound: c1cc(Cn2ccc(NC3CCC3)n2)ccn1 [Example 97, N-Cyclobutyl-1-(pyridin-4-ylmethyl)-1H-pyrazol-3-amine]

- inhibition at 50 µM [1]: 0 to 50%
- inhibition at 50 µM [2]: 0 to 50%
Compound: c1cc(Cn2ccc(NC3CC3)n2)ccn1 [Example 98, N-Cyclopropyl-1-(pyridin-4-ylmethyl)-1H-pyrazol-3-amine]

- IC50: 1 to 10 µM
Compound: FC(F)Cc1ccn(Cc2ccncc2)n1 [Example 102, 4-{[3-(2,2-Difluoroethyl)-1H-pyrazol-1-yl]methyl}pyridine]

- IC50: 1 to 10 µM
Compound: FC(F)(F)C(F)(F)c1ccn(Cc2ccncc2)n1 [Example 103, 4-{[3-(1,1,2,2,2-Pentafluoroethyl)-1H-pyrazol-1-yl]methyl}pyridine]

- inhibition at 50 µM [1]: 0 to 50%
- inhibition at 50 µM [2]: 0 to 50%
Compound: O=C(CCc1ccc(Cl)cc1)Nc1ccn(Cc2ccncc2)n1 [Example 106, 3-(4-Chlorophenyl)-N-{1-[(pyridin-4-yl)methyl]-1H-pyrazol-3-yl}propanamide]

- IC50: 1 to 10 µM
Compound: Cc1cnccc1Cn1ccc(CC(F)(F)F)n1 [Example 109, 3-Methyl-4-{[3-(2,2,2-trifluoroethyl)-1H-pyrazol-1-yl]methyl}pyridine]

Compound: (R)-2-(1-(1-(pyridin-4-yl)ethyl)-1H-pyrazol-3-yl)acetonitrile and (S)-2-(1-(1-(pyridin-4-yl)ethyl)-1H-pyrazol-3-yl)acetonitrile [Example 28]
- IC50: 1 to 10 µM

Compound: (R)-2-((1-(1-(Pyridin-4-yl)ethyl)-1H-pyrazol-3-yl)amino)acetonitrile and (S)-2-((1-(1-(pyridin-4-yl)ethyl)-1H-pyrazol-3-yl)amino)acetonitrile [Example 6]
- IC50: 1 to 10 µM

Compound: (R)-3-Chloro-4-(1-(1-(2,2,2-trifluoroethyl)-1H-pyrazol-3-yl)ethyl)pyridine and (S)-3-Chloro-4-(1-(1-(2,2,2-trifluoroethyl)-1H-pyrazol-3-yl)ethyl)pyridine [Example 113]
- IC50: 1 to 10 µM

Compound: (R)-3-Fluoro-4-(1-(1-(2,2,2-trifluoroethyl)-1H-pyrazol-3-yl)ethyl)pyridine and (S)-3-Fluoro-4-(1-(1-(2,2,2-trifluoroethyl)-1H-pyrazol-3-yl)ethyl)pyridine [Example 78]
- IC50: 1 to 10 µM

Compound: (R)-4-(1-(1-(2,2-Difluoroethyl)-1H-pyrazol-3-yl)ethyl)pyridine and (S)-4-(1-(1-(2,2-Difluoroethyl)-1H-pyrazol-3-yl)ethyl)pyridine [Example 110]
- IC50: 10 to 100 µM

Compound: (R)-4-(1-(1-(2,2-Difluoroethyl)-1H-pyrazol-3-yl)ethyl)pyridine and (S)-4-(1-(1-(2,2-Difluoroethyl)-1H-pyrazol-3-yl)ethyl)pyridine [Example 111]
- IC50: 1 to 10 µM

Compound: (R)-4-(1-(1-(2,2-Difluoroethyl)-1H-pyrazol-3-yl)ethyl-2,2,2-d3)pyridine and (S)-4-(1-(1-(2,2-Difluoroethyl)-1H-pyrazol-3-yl)ethyl-2,2,2-d3)pyridine [Example 114]
- Avg NAD % inhibition at 50 μM (50 μM compound, NAD peak area): * (% Inhibition 0-50%)
- Avg NAM % inhibition at 50 μM (50 μM compound, NAM peak area): * (% Inhibition 0-50%)

Compound: (R)-4-(1-(1-(2,2-Difluoroethyl)-1H-pyrazol-3-yl)ethyl-2,2,2-d3)pyridine and (S)-4-(1-(1-(2,2-Difluoroethyl)-1H-pyrazol-3-yl)ethyl-2,2,2-d3)pyridine [Example 114a]
- IC50: 1 to 10 µM

Compound: (S)-2-(1-(1-(Pyridin-4-yl)ethyl)-1H-pyrazol-3-yl)acetonitrile and (R)-2-(1-(1-(Pyridin-4-yl)ethyl)-1H-pyrazol-3-yl)acetonitrile [Example 27]
- IC50: 1 to 10 µM

Compound: (S)-2-((1-(1-(Pyridin-4-yl)ethyl)-1H-pyrazol-3-yl)amino)acetonitrile and (R)-2-((1-(1-(Pyridin-4-yl)ethyl)-1H-pyrazol-3-yl)amino)acetonitrile [Example 7]
- IC50: 1 to 10 µM

Compound: (S)-4-(1-(1-(2,2,2-Trifluoroethyl)-1H-pyrazol-3-yl)ethyl)pyridine and (R)-4-(1-(1-(2,2,2-Trifluoroethyl)-1H-pyrazol-3-yl)ethyl)pyridine [Example 13a]
- IC50: < 1 µM

Compound: (S)-4-(1-(1-(2,2,2-Trifluoroethyl)-1H-pyrazol-3-yl)ethyl)pyridine and (R)-4-(1-(1-(2,2,2-Trifluoroethyl)-1H-pyrazol-3-yl)ethyl)pyridine [Example 13b]
- Avg NAD % inhibition at 50 μM (50 μM compound, NAD peak area): ** (51-100%)
- Avg NAM % inhibition at 50 μM (50 μM compound, NAM peak area): ** (51-100%)

Compound: (S)—N-(2,2-Difluoroethyl)-1-(1-(pyridin-4-yl)ethyl)-1H-pyrazol-3-amine and (R)—N-(2,2-Difluoroethyl)-1-(1-(pyridin-4-yl)ethyl)-1H-pyrazol-3-amine [Example 8a]
- Avg NAD % inhibition at 50 μM (50 μM compound, NAD peak area): * (% Inhibition 0-50%)
- Avg NAM % inhibition at 50 μM (50 μM compound, NAM peak area): * (% Inhibition 0-50%)

Compound: (S)—N-(2,2-Difluoroethyl)-1-(1-(pyridin-4-yl)ethyl)-1H-pyrazol-3-amine and (R)—N-(2,2-Difluoroethyl)-1-(1-(pyridin-4-yl)ethyl)-1H-pyrazol-3-amine [Example 8b]
- IC50: < 1 µM
